Legend:
[1] = system: Polymerase; test: SYBR Green qPCR with modified adenosine analogues added, Ct measured; type: biochemical; conditions: for effect on amplification of the template (qPCR): dose-dependent, efficacy higher for phosphate than hydroxyl at same concentration
Procedure: In a second set of experiments, the modified adenosine analogues were added in a SYBR Green qPCR mix, and reactions performed using the same template and primers as above. The Ct (Threshold Cycle) parameter was measured for each condition. The Ct is the cycle number at which the fluorescence generated within a reaction crosses the fluorescence threshold. The higher the Ct, the lower the amount of product (or lower expression).
At the same concentration, the efficacy of inhibition of amplification was higher for phosphate than hydroxyl.

[2] = biological target: SARS-COV-2 polymerase NSP12 (Severe acute respiratory syndrome coronavirus 2, UniProt P0DTD1); test: SARS-CoV-2 RNA polymerization assay with RdRp catalytic domain, PAGE gel (FIG. 2); type: biochemical; conditions: rATP split 50:50 with compound, 37° C. for 2 h
[3] = gene 18SrRNA, substance 0.075 mM (Final)
[4] = gene 18SrRNA, substance 0.15 mM (Final)
[5] = gene 18SrRNA, substance 0.3 mM (Final)
[6] = gene ACTB, substance 0.075 mM (Final)
[7] = gene ACTB, substance 0.15 mM (Final)
[8] = gene ACTB, substance 0.3 mM (Final)

Row | SMILES | effect on amplification of the template (qPCR) [1] | Ct Mean [1, 3] | Ct Mean [1, 4] | Ct Mean [1, 5] | Ct Mean [1, 6] | Ct Mean [1, 7] | Ct Mean [1, 8] | in vitro replication of the SARS-CoV-2 RNA via the SARS-CoV-2 RNA polymerase [2]
1 | Nc1ncnc2c1ncn2-c1nc(O)c2ccccc2n1 [Compound A, 2-(6-amino-9H-purin-9-yl)quinazolin-4-ol] | decrease of the amplification of the template | 12.88 | 13.43 | 14.84 | 20.08 | 20.55 | 21.14 | inhibits
2 | Nc1ncnc2c1ncn2-c1nc(O)c2ccc(F)cc2n1 [Compound B, 2-(6-amino-9H-purin-9-yl)-7-fluoro-quinazolin-4-ol] |  |  |  |  |  |  |  | inhibits
3 | Nc1ncnc2c1ncn2-c1nc(OP(=O)(O)O)c2ccccc2n1 [Compound C, 2-(6-amino-9H-purin-9-yl)quinazolin-4-yl dihydrogen phosphate] | decrease of the amplification of the template | 12.78 | 13.70 | 15.98 | 20.15 | 20.91 | 21.82 | inhibits
4 | Nc1ncnc2c1ncn2C1OC(COP(=O)(O)OP(=O)(O)OP(=O)(O)O)CC1O.[Na] (stereo not drawn) [commercial inhibitor, Cordycepin 5′-triphosphate sodium salt, reference compound] |  |  |  |  |  |  |  | polymerization blocked

Source: patent US12582656B2, “Nucleotide analogues” (R.G.C.C. Holdings AG, priority 2020, dated 2026)
